Read-outs that look alike come from different tables or passages of the source.
Experiments:
AEA uptake in U937 cells = experiment: AEA uptake inhibition in U937 cells; format: cell-based; conditions: for IC50 / IC50 for AEA uptake inhibition: U937 cells
Experimental: Based on the natural product (2E,4E)-N-isobutylamidedodeca-2,4-dienamide from the medicinal plant E. purpurea as a starting point, a library of 634 of analogs and derivatives with varying alkyl chain length was synthesized, and structure of the head group moiety analyzed. All new derivatives were tested for AEA uptake inhibition in U937 cells using a high-content screening assay.
(§1) All radioactivity-based AEA and 2-AG uptake and release assays performed in U937, and HMC-1 cells were carried out using two different assay formats as previously reported. AEA and 2-AG uptake assay in Neuro2a and primary mouse cortical neurons were performed with a different method disclosed in Chicca 2017.

[1] = 14C-WOBE437 saturation binding to U937 membranes; conditions: for competition with 14C-WOBE437 binding: brain and U937 membranes
Experimental: (§2) In addition to their effects on AEA uptake, the inhibition of FAAH was thoroughly investigated for all nanomolar inhibitors. […] The lack of significant FAAH inhibition by WOBE437 was established in different assay systems using human recombinant enzyme, cell and brain homogenates. […] Importantly, WOBE437 (1 μM) inhibited AEA uptake also in primary mouse cortical neurons by 50% after 2-7 min of incubation with a smaller inhibition (20-35%) upon longer incubation (10-20 min, FIG. 1F). […] In Neuro2a cells, incubation with WOBE437 (5 μM) for 2 and 5 min reduced overall uptake by 40%. (FIG. 1G). […] Then cells were treated with radiolabeled ^14C-WOBE437 to investigate the cellular penetration of the compound. In U937 cells, the vast majority of the radioactive signal was collected in the extracellular and membrane-bound fractions (75-90%), with negligible amounts (5-9%) detected in the intracellular fraction (FIGS. 2A-D). […] In order to further investigate this point, ^14C-WOBE437 was applied to membrane preparations generated in-house from mouse brain and U937 cells. […] The Kd values are in line with the IC50 values shown in the functional AEA uptake assays in Neuro2a and U937 cells (FIGS. 1C and 1D). In further experiments, 10 nM of ^14C-WOBE437 was co-incubated with different concentrations of AEA and U937 membranes. […] Furthermore, the endocannabinoids AEA and noladin ether and the AEA uptake inhibitor OMDM-2 could compete with ^14C-WOBE437 binding in brain and U937 membranes. […] Secondary plots of the slope (Kmapp/Vmaxapp vs. [WOBE437]) and intercept (1/Vmaxapp vs. [WOBE437]) confirmed the competitive inhibition of AEA uptake.

[2] = system: main EC degrading enzymes (FAAH, MAGL); conditions: cited from earlier work
CB1 receptors = conditions: repeated administrations; cited from earlier work
[3] = system: 2-AG uptake in Neuro2a cells; experiment: 2-AG uptake and hydrolysis in Neuro2a cells; format: cell-based, mouse; conditions: Neuro2a cells, time course
Experimental: as §1

C57BL6/J mice = conditions: repeated administrations; cited from earlier work
[4] = LC-MS/MS quantification of WOBE437 in tissues after i.p. injection; format: in vivo, mouse; conditions: 10 mg/kg i.p., C57BL6/N mice, after 1 h
U937 cells = experiment: Localization of 14C-WOBE437 in cellular fractions of U937 cells; format: cell-based
Experimental: FIGS. 2A-D: Different initial amounts of ^14C-WOBE437 were incubated for 15 min with 1×10^6 of U937 cells at 37° C. Afterwards, cells were centrifuged and the ^14C-signal was measured from the extracellular (light grey), membrane-bound (dark grey) and intracellular (white) fraction. The results are reported in absolute amounts and as percentage of the initial amount.
The cell penetration and tissue distribution of ^14C-WOBE437 was assessed in U937 cells and C57BL6/N mice as described in Chicca 2017.

[5] = 14C-WOBE437 saturation binding to mouse brain membranes; conditions: mouse brain membranes
Experimental: as §2

CCCCCCC/C=C/C=C/C(=O)NCCc1cccnc1 [2-(pyridin-3-yl)]ethyl]
IC50 (AEA uptake in U937 cells; 100 nM total AEA): 101 nM | IC50 for AEA uptake inhibition (AEA uptake in U937 cells; 100 nM total AEA): nanomolar range

CCCCCCC/C=C/C=C/C(=O)NCCO [(2E,4E)-dodecadienoyl ethanolamine]
IC50 (AEA uptake in U937 cells): 3470 nM

CCCCC/C=C\C/C=C\C/C=C\C/C=C\CCCC(=O)NCCO [AEA, N-arachidonoylethanolamine]
effect on 14C-WOBE437 binding curve ([1]; 10 nM 14C-WOBE437 co-incubated with increasing AEA): increase of Kd values, while not significantly modifying Bmax values | competition with 14C-WOBE437 binding [1]: could compete

CCCCC/C=C\C/C=C\C/C=C\C/C=C\CCCC(=O)Nc1ccc(O)cc1 [AM404, N-(4-hydroxyphenyl)arachidonamide]
substrate of FAAH or MAGL ([2]; h/rFAAH or hMAGL): substrates for h/rFAAH or hMAGL

O=C(Oc1ccc([N+](=O)[O-])cc1)N1CCC(C(O)(c2ccc3c(c2)OCO3)c2ccc3c(c2)OCO3)CC1 [JZL184]
effect on CB1 receptors (CB1 receptors): desensitize CB1 receptors | effect on 2-AG uptake and hydrolysis [3]: specifically inhibited hydrolysis | 2-AG overflow relative to basal levels (C57BL6/J mice): 10-12 times basal levels

CCCCCCC/C=C/C=C/C(=O)NCCc1ccc2c(c1)OCCO2 [N-(2,3-dihydro-1,4-benzodioxin-6-yl)ethyl dodeca-2E,4E-dienamide]
potency for AEA uptake relative to WOBE437 (times less potent) (AEA uptake in U937 cells): approximately 13 times | IC50 for AEA uptake inhibition (AEA uptake in U937 cells; 100 nM total AEA): nanomolar range

CCCCCCCC/C=C\CCCCCCCC(=O)N[C@@H](CO)Cc1ccc(O)cc1 [OMDM-2]
competition with 14C-WOBE437 binding [1]: could compete

CCCCC/C=C\C/C=C\C/C=C\C/C=C\CCCC(=O)NCc1ccoc1 [UCM707]
substrate of FAAH or MAGL ([2]; h/rFAAH or hMAGL): substrates for h/rFAAH or hMAGL

CCCCC/C=C\C/C=C\C/C=C\C/C=C\CCCC(=O)Nc1ccc(O)cc1C [VDM11, N-(2-methyl-4-hydroxy-phenyl)-arachidonamide]
substrate of FAAH or MAGL [2]: substrates for h/rFAAH or hMAGL

CN(Cc1cccc(-c2ccncc2)c1)C(=O)Oc1ccc(-c2ccc(C(N)=O)cc2)cc1 [WWL70, reference compound]
effect on 2-AG uptake and hydrolysis [3]: prevented 2-AG uptake and hydrolysis occurring at later time points

CCCCCCC/C=C/C=C/C(=O)NCCc1ccc(OC)c(OC)c1 [^14C-WOBE437]
Bmax ([1]; U937 membranes): 15.6±1.4 fmol/mg protein | Kd ([1]; U937 membranes): 11.3 ± 2.4 nM | tissue distribution of 14C signal [4]: highest ^14C signal was measured in adipose tissue | membrane-associated signal (U937 cells; 10 nM): 9.8 % of total signal | membrane-associated signal (U937 cells; 100 nM): 1.7 % of total signal | cell-associated radioactive signal over time (U937 cells; 100 nM, 0-30 min): approximately 10 % of total signal | membrane-associated signal (U937 cells; 1 μM): 0.7 % of total signal | membrane-associated signal (U937 cells; 10 μM): 0.7 % of total signal | radioactive signal in extracellular and membrane-bound fractions (U937 cells; U937 cells, 15 min, 37° C.): 75-90% | radioactive signal in intracellular fraction (U937 cells; U937 cells, 15 min, 37° C.): 5-9% | Bmax [5]: 18.2±1.5 fmol/mg protein | Kd ([5]; read-out: Kd): 15.7 ± 2.8 nM

CCCCC/C=C\C/C=C\C/C=C\C/C=C\CCCCOC(CO)CO [noladin ether]
competition with 14C-WOBE437 binding [1]: could compete

CCCCCCCC=CC=CC(=O)NCc1cccnc1 [pyridin-3-ylmethyl]
IC50 (AEA uptake in U937 cells; 100 nM total AEA): 2690 nM

CCCCCCCC=CC=CC(=O)NCCc1ccccc1 [unsubstituted parent compound]
IC50 (AEA uptake in U937 cells; 100 nM total AEA): 1140 nM

benzodioxole
potency for AEA uptake relative to WOBE437 (times less potent) (AEA uptake in U937 cells): approximately 13 times

From US10414721B1, “Inhibitor of endocannabinoid cellular reuptake” (University of Bern, priority 2018, dated 2019)
